Measurements reported in PMC4770306, “Structure-Based Identification of Inhibitory Fragments Targeting the p300/CBP-Associated Factor Bromodomain” (Journal of Medicinal Chemistry, 2016).
pIC50, pKd: −log10 of the molar value.

Assays:
Type in all cases: binding
PCAF bromodomain [1] = target: T1, PCAF bromodomain (Homo sapiens, UniProt Q92831); test: SPR (Biacore) of TINS fragment hits on immobilized PCAF; settings: for pKd: SPR, 20 °C, six concentrations, aqueous buffer without DMSO; for LE: from SPR KD and heavy atom count
T1 construct: made in house
T1 sequence (Q92831 723-827 limits assumed): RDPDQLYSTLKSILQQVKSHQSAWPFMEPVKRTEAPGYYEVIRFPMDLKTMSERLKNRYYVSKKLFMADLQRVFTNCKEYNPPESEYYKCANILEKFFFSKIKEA
Method: Recombinant PCAF was biotinylated on the N-terminal AVI tag in vivo. Purified, biotinylated PCAF was captured onto a NeutraAvidin-coated CM5 sensor chip surface in 20 mM sodium phosphate pH7.5, 150 mM NaCl, 2 mM DTT, and 0.05% P20 Tween. This buffer was subsequently used for all studies. The immobilization level was 10150 RU. All SPR experiments were performed using a Biacore T200 instrument at 20 °C. Fragment hits from TINS were directly solubilized in the running buffer. Each fragment was titrated at six different concentrations for KD determination. An acetyl-Lys 16 peptide derived from H4 was used to monitor the ligand binding capacity of the immobilized PCAF bromodomain at regular intervals.

PCAF bromodomain [2] = target: T2, PCAF bromodomain (Homo sapiens, UniProt Q92831); test: Thermal stability shift assay (DSF), PCAF bromodomain; settings: compound 1 mM, protein 2 μM, average of triplicates
T2 construct: The PCAF bromodomain (aa 715–831) containing an N-terminal His6-tag was recombinantly expressed in Escherichia coli Rosetta; His6 (N, cleaved yes); made in house; host or cells: Escherichia coli Rosetta
T2 sequence (Q92831 715-831): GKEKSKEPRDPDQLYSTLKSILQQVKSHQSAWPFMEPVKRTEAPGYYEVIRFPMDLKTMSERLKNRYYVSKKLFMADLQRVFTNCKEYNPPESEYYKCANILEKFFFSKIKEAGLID

ATAD2A = target: T3, ATAD2A (Homo sapiens, UniProt Q6PL18); test: Alphascreen assay ATAD2A
T3 sequence (Q6PL18 1-1390): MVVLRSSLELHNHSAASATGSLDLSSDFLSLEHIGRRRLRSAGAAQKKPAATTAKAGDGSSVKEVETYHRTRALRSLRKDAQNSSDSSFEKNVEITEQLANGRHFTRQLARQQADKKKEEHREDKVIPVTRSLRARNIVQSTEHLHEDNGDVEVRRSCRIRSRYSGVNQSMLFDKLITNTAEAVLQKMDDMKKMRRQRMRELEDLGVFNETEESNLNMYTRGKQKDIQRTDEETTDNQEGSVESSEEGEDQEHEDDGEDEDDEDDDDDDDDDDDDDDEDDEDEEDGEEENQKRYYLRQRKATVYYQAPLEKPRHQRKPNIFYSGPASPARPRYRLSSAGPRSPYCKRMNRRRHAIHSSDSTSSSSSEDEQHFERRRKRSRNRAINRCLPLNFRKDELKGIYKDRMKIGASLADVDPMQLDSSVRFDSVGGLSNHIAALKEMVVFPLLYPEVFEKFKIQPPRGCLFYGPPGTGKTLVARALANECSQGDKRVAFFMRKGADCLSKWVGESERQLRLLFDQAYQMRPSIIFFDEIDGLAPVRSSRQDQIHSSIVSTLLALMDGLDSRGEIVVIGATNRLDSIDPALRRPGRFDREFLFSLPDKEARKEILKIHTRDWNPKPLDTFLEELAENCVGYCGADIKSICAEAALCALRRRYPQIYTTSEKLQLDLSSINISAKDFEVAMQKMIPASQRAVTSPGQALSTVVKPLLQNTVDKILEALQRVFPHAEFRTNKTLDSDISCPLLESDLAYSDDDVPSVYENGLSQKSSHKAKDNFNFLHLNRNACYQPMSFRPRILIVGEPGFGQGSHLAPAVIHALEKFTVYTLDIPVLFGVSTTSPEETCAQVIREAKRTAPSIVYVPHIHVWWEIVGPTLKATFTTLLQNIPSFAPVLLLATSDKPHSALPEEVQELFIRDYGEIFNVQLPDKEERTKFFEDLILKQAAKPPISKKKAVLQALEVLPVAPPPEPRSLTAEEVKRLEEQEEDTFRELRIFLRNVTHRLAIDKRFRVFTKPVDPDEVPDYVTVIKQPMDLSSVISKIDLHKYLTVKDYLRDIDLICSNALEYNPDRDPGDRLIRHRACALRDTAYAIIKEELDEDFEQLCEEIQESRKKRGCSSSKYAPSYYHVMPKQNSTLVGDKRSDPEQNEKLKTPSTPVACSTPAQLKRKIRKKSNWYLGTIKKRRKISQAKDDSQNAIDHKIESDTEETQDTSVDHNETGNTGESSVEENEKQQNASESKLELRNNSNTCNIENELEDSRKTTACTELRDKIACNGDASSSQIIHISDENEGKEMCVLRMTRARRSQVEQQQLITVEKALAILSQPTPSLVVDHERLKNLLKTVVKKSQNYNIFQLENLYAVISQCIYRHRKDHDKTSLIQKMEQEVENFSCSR

BAZ1BA = target: T4, BAZ1BA (Homo sapiens, UniProt Q9UIG0); test: Alphascreen assay BAZ1BA
T4 sequence (Q9UIG0 1-1483): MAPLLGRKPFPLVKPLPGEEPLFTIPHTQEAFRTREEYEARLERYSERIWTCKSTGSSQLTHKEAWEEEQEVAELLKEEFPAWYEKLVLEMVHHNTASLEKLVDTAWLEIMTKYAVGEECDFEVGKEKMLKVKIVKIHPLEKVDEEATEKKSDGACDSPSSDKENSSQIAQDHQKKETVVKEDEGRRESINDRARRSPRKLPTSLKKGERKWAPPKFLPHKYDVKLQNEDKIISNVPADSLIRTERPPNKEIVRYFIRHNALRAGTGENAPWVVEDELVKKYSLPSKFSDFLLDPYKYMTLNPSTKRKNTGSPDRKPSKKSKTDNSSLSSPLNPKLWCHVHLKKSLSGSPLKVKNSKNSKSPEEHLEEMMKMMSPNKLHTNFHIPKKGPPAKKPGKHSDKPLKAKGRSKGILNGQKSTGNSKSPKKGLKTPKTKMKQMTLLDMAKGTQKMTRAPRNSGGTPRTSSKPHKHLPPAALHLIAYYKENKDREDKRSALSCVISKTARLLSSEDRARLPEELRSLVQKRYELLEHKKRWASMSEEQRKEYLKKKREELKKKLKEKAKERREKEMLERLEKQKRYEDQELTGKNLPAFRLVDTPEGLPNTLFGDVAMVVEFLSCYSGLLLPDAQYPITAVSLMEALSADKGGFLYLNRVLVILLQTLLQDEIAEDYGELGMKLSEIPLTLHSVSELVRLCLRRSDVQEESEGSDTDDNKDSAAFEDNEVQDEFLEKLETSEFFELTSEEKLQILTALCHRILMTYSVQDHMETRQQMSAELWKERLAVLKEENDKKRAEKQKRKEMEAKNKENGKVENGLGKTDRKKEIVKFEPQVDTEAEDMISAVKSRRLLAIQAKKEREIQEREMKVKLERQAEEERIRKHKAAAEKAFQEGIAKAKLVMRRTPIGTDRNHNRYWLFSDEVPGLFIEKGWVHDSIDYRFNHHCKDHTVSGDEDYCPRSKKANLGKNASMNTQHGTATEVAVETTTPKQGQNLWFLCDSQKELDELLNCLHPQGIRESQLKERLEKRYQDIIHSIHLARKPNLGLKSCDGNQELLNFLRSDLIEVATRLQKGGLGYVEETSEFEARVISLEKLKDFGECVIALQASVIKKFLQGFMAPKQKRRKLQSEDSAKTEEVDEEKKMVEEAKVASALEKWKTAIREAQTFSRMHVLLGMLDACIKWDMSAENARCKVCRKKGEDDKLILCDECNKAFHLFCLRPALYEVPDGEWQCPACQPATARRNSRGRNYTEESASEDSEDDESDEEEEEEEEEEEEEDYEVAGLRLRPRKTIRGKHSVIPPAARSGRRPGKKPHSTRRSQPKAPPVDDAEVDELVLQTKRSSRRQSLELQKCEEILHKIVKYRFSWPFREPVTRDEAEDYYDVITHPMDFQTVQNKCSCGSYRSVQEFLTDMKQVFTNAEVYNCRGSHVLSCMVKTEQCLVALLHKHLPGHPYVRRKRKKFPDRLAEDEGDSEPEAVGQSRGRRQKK

BAZ2BA = BAZ2BA (Homo sapiens, UniProt Q9UIF8); test: Alphascreen assay BAZ2BA
BRD9A = target: T5, BRD9A (Homo sapiens, UniProt Q9H8M2); test: Alphascreen assay BRD9A; settings: for % Inhibition at 25 µM / inhibition at 25 µM: BRD9A; for pIC50: read-out: BRD9 IC50
T5 sequence (Q9H8M2 1-597): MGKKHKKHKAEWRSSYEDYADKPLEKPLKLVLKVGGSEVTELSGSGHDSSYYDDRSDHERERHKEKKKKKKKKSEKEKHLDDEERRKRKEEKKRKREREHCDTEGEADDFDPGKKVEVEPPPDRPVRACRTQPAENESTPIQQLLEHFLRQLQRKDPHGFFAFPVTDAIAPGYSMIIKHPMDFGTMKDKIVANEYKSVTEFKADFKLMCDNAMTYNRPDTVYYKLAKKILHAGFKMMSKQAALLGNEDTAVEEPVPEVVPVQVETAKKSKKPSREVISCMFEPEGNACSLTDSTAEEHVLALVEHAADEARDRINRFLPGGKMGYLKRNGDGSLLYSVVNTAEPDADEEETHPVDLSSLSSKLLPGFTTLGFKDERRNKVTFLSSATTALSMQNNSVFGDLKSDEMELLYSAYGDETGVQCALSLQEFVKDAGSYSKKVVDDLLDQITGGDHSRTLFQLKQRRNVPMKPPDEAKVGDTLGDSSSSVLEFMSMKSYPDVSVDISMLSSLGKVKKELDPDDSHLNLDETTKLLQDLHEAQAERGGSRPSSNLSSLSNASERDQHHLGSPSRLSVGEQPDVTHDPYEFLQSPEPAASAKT

BRPF3A = target: T6, BRPF3A (Homo sapiens, UniProt Q9ULD4); test: Alphascreen assay BRPF3A
T6 sequence (Q9ULD4 1-1205): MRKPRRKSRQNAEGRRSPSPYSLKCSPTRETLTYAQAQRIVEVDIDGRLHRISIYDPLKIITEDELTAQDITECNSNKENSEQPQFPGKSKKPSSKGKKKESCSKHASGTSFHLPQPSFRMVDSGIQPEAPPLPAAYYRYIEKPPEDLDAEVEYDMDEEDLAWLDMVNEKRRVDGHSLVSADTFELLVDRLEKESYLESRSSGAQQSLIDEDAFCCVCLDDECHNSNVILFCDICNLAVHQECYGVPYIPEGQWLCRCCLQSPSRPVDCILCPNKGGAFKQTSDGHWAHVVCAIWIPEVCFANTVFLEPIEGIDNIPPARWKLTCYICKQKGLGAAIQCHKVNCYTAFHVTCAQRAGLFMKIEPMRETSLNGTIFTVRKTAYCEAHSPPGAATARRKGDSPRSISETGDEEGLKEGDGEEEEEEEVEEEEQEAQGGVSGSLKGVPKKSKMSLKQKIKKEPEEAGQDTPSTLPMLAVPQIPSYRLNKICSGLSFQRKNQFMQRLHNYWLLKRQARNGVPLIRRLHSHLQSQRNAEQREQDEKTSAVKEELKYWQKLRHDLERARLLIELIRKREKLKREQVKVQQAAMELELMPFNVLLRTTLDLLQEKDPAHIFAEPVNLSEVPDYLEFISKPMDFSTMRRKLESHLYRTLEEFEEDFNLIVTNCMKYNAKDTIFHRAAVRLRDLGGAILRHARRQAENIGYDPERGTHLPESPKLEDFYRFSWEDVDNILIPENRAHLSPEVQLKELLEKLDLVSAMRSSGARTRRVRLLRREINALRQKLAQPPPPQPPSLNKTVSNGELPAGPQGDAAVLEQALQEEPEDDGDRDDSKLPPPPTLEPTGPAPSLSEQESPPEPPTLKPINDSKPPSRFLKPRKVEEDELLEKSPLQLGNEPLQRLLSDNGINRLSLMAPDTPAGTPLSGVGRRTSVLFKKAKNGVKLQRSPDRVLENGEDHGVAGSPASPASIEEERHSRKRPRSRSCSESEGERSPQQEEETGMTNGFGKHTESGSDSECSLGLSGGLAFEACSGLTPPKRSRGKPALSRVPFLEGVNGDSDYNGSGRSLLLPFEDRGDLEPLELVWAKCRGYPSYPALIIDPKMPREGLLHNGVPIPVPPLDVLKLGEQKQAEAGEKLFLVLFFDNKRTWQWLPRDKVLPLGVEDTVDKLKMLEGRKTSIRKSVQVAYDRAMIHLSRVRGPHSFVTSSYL

CECR2A = CECR2A (Homo sapiens, UniProt Q9BXF3); test: Alphascreen assay CECR2A
PCAF bromodomain [3] = target: T2, PCAF bromodomain; test: Isothermal titration calorimetry (ITC) with PCAF; settings: from ITC Kd

Chain of BAZ2BA (Q9UIF8 whole entry): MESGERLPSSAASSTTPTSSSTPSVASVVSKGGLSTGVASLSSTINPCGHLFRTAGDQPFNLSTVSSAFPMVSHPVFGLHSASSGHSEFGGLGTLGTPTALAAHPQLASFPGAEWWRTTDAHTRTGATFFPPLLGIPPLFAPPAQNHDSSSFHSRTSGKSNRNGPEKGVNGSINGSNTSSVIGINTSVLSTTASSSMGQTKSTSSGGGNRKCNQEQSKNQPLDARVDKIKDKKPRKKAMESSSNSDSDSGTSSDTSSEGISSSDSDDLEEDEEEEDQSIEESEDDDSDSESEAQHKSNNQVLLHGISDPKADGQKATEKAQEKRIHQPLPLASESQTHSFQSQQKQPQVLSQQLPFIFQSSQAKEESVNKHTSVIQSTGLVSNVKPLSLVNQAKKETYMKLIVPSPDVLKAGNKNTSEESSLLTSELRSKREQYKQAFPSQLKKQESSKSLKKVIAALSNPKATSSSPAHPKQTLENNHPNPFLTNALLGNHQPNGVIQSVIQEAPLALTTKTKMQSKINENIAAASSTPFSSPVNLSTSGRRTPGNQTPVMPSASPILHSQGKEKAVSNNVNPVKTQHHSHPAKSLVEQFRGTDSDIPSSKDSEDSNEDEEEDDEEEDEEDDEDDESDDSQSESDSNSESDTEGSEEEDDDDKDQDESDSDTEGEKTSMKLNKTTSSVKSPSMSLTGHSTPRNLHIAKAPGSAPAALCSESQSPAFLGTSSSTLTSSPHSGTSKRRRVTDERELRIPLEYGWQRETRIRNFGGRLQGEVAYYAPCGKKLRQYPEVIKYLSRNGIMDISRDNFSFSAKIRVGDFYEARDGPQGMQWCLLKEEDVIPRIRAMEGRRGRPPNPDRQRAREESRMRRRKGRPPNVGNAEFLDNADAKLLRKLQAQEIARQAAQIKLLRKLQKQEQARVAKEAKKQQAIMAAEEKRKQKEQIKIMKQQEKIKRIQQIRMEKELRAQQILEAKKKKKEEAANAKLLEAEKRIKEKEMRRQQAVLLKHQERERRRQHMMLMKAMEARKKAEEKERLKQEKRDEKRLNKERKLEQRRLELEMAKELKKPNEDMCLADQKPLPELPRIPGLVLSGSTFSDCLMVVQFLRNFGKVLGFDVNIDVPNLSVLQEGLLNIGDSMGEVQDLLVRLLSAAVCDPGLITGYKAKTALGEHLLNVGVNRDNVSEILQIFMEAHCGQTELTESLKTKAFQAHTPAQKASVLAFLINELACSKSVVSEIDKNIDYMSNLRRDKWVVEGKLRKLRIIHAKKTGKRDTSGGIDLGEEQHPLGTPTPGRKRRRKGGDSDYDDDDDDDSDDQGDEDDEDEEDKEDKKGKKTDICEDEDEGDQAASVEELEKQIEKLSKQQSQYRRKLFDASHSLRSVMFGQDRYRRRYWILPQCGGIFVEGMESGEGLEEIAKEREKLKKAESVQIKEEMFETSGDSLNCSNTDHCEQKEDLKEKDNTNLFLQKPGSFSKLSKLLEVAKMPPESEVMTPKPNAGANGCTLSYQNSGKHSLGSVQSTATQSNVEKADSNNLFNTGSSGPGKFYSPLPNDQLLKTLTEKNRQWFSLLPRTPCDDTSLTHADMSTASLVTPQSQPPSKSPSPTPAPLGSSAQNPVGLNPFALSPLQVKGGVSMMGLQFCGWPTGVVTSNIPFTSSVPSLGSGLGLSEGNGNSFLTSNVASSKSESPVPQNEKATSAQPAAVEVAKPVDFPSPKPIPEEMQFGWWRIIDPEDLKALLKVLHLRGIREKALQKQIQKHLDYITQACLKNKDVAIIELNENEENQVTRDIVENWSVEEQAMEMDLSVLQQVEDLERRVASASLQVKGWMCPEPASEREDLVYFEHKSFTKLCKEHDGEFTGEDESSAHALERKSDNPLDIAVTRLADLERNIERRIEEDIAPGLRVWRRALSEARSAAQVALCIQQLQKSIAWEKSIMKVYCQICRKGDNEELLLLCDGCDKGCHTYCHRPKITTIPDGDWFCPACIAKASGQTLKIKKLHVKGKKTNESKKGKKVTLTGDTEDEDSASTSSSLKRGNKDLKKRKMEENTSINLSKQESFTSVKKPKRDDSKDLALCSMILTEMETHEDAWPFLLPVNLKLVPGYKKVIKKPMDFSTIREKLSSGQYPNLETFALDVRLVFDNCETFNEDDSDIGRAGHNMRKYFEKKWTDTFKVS
Chain of CECR2A (Q9BXF3 whole entry): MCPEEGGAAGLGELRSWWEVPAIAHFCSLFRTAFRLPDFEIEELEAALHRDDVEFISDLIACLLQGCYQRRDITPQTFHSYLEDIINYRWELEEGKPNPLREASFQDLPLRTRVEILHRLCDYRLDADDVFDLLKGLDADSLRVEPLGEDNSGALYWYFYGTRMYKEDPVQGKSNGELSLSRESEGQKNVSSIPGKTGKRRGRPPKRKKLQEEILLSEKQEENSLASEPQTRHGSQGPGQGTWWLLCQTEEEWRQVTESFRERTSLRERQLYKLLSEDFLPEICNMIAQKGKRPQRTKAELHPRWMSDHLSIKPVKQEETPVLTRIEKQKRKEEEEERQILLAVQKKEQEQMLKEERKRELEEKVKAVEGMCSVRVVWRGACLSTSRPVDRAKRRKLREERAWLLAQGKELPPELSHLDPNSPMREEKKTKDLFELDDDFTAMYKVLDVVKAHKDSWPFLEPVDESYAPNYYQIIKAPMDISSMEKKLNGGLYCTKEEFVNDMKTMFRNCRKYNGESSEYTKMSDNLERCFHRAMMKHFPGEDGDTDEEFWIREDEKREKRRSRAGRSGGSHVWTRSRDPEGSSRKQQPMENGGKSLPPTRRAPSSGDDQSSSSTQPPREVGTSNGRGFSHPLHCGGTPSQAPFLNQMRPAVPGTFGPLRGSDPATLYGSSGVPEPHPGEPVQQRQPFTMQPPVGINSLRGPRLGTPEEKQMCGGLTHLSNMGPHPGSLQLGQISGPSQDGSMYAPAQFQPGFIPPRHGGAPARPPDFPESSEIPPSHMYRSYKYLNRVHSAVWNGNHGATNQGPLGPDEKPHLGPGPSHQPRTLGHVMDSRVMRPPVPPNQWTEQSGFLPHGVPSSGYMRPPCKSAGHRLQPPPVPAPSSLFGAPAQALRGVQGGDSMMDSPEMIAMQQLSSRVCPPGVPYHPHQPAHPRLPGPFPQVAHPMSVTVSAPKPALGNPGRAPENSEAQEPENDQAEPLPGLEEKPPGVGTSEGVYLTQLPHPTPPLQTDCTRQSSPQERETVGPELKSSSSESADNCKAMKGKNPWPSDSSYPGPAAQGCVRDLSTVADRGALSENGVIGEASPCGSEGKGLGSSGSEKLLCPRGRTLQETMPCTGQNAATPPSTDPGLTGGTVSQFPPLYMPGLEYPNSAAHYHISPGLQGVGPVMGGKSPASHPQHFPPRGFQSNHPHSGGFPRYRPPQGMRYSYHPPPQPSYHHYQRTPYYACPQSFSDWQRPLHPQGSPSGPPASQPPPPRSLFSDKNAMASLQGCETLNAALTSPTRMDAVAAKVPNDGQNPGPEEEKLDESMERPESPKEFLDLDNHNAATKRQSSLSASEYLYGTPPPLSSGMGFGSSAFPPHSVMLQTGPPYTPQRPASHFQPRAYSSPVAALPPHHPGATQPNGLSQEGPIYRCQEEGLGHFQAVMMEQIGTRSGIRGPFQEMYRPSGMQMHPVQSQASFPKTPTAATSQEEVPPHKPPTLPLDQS

pKd (PCAF bromodomain [1])	LE (PCAF bromodomain [1])	inhibition at 25 µM (ATAD2A) [%]	inhibition at 25 µM (BAZ1BA) [%]	inhibition at 25 µM (BAZ2BA) [%]	% Inhibition at 25 µM (BRD9A)	inhibition at 25 µM (BRD9A) [%]	pIC50 (BRD9A)	inhibition at 25 µM (BRPF3A) [%]	inhibition at 25 µM (CECR2A) [%]	SMILES	other results
2.57	0.23									Cc1c(N)c(=O)n(-c2ccccc2)n1C [compound 9]	
2.16	0.24									NC1CCN(C(=O)C2CC2)CC1 [compound 10]	
3.31	0.32									Cc1nn(CCO)c2c1C(=O)CCC2 [compound 11]	
		2.4	0.7	-2.6	strong inhibition	82.8	4.90	46.8	38.7	CC(=O)Nc1ccc2c(C)cc(=O)n(C)c2c1 [compound 12, N-(1,4-dimethyl-2-oxo-1,2-dihydroquinolin-7-yl)acetamide]	ΔTm (°C) at 1 mM (± SEM) (PCAF bromodomain [2]): 2.6–2.9 °C
		1.4	-0.2	5.3	strong inhibition	84.1	5.24	28.7	3.9	Cc1cc(=O)n(C)c2cc(NS(C)(=O)=O)ccc12 [compound 13, N-(1,4-dimethyl-2-oxo-1,2-dihydroquinolin-7-yl)methanesulfonam]	
										CNC(=O)c1cc(OCC(=O)Nc2ccccc2)ccc1OC1CCOCC1 [compound 14, N-methyl-5-(2-oxo-2-(phenylamino)ethoxy)-2-((tetrahydro-2H-pyran-4-yl)oxy)benzamide]	ligand efficiency (LE) (PCAF bromodomain [3]): 0.24
